According to patent US10176292B2, “STING crystals and modulators” (MEMORIAL SLOAN-KETTERING CANCER CENTER, priority 2013, dated 2019):

Assays:
[1] = biological target: hSTING^R232 (aa 140-379) (Homo sapiens, UniProt Q86WV6, H232R); assay: ITC binding, hSTING^R232 (wt hSTING); conditions: wild-type (wt) hSTING protein
[2] = biological target: hSTING^R232/A162 (Homo sapiens, UniProt Q86WV6, H232R/S162A); assay: ITC binding, hSTING^R232/A162; conditions: Protein: 0.08 mM; Ligands: 0.8 mM; 30 mM HEPES, 180 mM NaCl, pH 7.5; 25° C.
[3] = biological target: T1, hSTING I235L (Homo sapiens, UniProt Q86WV6, H232R/I235L); assay: IFN-β luciferase reporter, hSTING I235L; type: cell-based; conditions: 0.18 mM DMXAA, 12 hours
T1 construct: Full-length hSTING (wt and substitutions) and mSTING (wt) constructs were used for this cellular assay; expressed in transfected cells; host or cells: 293T
Description: (§1) Luciferase assays for DMXAA experiments were performed as described above. Briefly, 3×10^4 293T cells were reverse-transfected with STING constructs (5 ng per 96-well) and reporter constructs (50 ng pIFNβ-Gluc, 10 ng pLenti-EF1-Fluc for normalization, 35 ng pMAX-empty as stuffer, delivered with TransIT-LT1, MirusBio, Madison Wis.). […] 12 hours after stimulation with STING-ligands, cells were resuspended in passive lysis buffer and luciferase activity was determined using the respective substrates Coelenterazine and D-Luciferin (PJK, Kleinblittersdorf, Germany). Gaussia Luciferase values were then normalized to constitutive Firefly Luciferase values (resulting in Relative Light Units, RLU).

[4] = biological target: T2, hSTING^S162A/Q266I (Homo sapiens, UniProt Q86WV6, H232R/Q266I/S162A); assay: Real-time PCR in STING^Gt/Gt BMDCs transduced with hSTING^S162A/Q266I; type: cell-based; parameters: expressed in transfected cells; host or cells: bone marrow-derived dendritic cells of STING^Gt/Gt mice, retroviral transduction (pQCXIP-HA); conditions: 50 μg/ml DMXAA, 3 hours
Description: (§2) The protocol for generation of bone marrow-derived dendritic cells was described before (Dai et al., 2014). […] BMDCs (1×10^6 cells/well) were infected with retroviruses expressing hSTING (wt and various substitution mutants).
(§3) hSTING cDNAs were cloned into pQCXIP-HA vector. In vitro packaging system was used to generate retroviruses according to protocol (Clontech). BMDCs (1×10^6 cells/well) were seeded into 6-well plates and infected with retroviruses. […] CXCL10 protein level was determined by ELISA.

[5] = biological target: T3, hSTING S162V (Homo sapiens, UniProt Q86WV6, S162V); assay: IFN-β luciferase reporter, hSTING S162V; type: cell-based; conditions: 75 μg/ml DMXAA (FIG. 14A)
T3 construct: Full-length hSTING (wt and substitutions) and mSTING (wt) constructs were used for this cellular assay; expressed in transfected cells; host or cells: HEK293T
Description: (§4) Luciferase expression was determined after 12 h. […] Cells were lysed in Passive Lysis Buffer.
as §1

[6] = test system: hSTING^group134; assay: IFN-β luciferase reporter, hSTING^group134; type: cell-based, human; conditions: 0.18 mM DMXAA; compared with hSTING^group1234
Description: as §1
(§5) Full-length hSTING (wt and substitutions) and mSTING (wt) constructs were used for this cellular assay, and were expressed at moderate levels allowing ligand-dependent activation of IFN-β promoter.

[7] = biological target: hSTING^S162A/G230I/Q266I (Homo sapiens, UniProt Q86WV6, G230I/H232R/Q266I/S162A); assay: CXCL10 ELISA in STING^Gt/Gt BMDCs transduced with hSTING^S162A/G230I/Q266I; type: cell-based; conditions: 50 μg/ml DMXAA, supernatants at 18 h; compared with the other hSTING substituents
Description: as §2, §3
CXCL10 was measured using the BD Opteia human IP-10 ELISA Set according to manufacturer's recommendations. Murine IFN-α was determined by ELISA using antibody RMMA-1 for capture and rabbit-anti-murine IFN-α polyclonal antibody for detection (PBL Interferon Source, Piscataway, N.J.). Dose-response curves were fitted and EC50 values were determined with Graphpad Prism (Graph Pad Software Inc., San Diego, Calif.).

[8] = test system: non-small-cell lung cancer; conditions: with paclitaxel and carboplatin, non-small-cell lung cancer (Lara et al. 2011); cited from earlier work
[9] = biological target: hSTING^H232/A162 (Homo sapiens, UniProt Q86WV6, S162A); assay: ITC binding, hSTING^H232 mutant S162A; conditions: DMXAA; Protein: 0.08 mM; Ligands: 0.8 mM; 180 mM NaCl, pH 7.5; 25° C.
[10] = biological target: T4, hSTING S162I (Homo sapiens, UniProt Q86WV6, S162I); assay: IFN-β luciferase reporter, hSTING S162I; type: cell-based; conditions: 75 μg/ml DMXAA (FIG. 14A)
T4 construct: Full-length hSTING (wt and substitutions) and mSTING (wt) constructs were used for this cellular assay; expressed in transfected cells; host or cells: HEK293T
Description: as §4, §1

[11] = biological target: T5, hSTING Q266L (Homo sapiens, UniProt Q86WV6, H232R/Q266L); assay: IFN-β luciferase reporter, hSTING Q266L; type: cell-based; conditions: 0.18 mM DMXAA, 12 hours
T5 construct: Full-length hSTING (wt and substitutions) and mSTING (wt) constructs were used for this cellular assay; expressed in transfected cells; host or cells: 293T
Description: as §1

[12] = test system: hSTING S162A (hSTING^H232 and hSTING^R232 background); type: cell-based, human; conditions: DMXAA in medium, 12 h; hSTING^H232 and hSTING^R232 background
[13] = biological target: T6, hSTING^S162A (Homo sapiens, UniProt Q86WV6, H232R/S162A); assay: Real-time PCR in STING^Gt/Gt BMDCs transduced with hSTING^S162A; type: cell-based; conditions: 50 μg/ml DMXAA, 3 hours
T6 construct: expressed in transfected cells; host or cells: bone marrow-derived dendritic cells of STING^Gt/Gt mice, retroviral transduction (pQCXIP-HA)
Description: as §2, §3

[14] = biological target: T2, hSTING^S162A/Q266I; assay: IFN-β luciferase reporter, hSTING^S162A/Q266I; type: cell-based; parameters: expressed in transfected cells; conditions: dose-response
Description: as §1

[15] = biological target: T7, hSTING^group2 (Homo sapiens, UniProt Q86WV6, D237N/G230I/I244V/K224M/L222R/T229N); assay: IFN-β luciferase reporter, hSTING^group2; type: cell-based; conditions: 0.18 mM DMXAA (50 μg/ml), 12 hours
T7 construct: Full-length hSTING (wt and substitutions) and mSTING (wt) constructs were used for this cellular assay; expressed in transfected cells; host or cells: 293T
Description: as §1, §5

Chain of hSTING^R232/A162 (Q86WV6 140-379 S162A/H232R): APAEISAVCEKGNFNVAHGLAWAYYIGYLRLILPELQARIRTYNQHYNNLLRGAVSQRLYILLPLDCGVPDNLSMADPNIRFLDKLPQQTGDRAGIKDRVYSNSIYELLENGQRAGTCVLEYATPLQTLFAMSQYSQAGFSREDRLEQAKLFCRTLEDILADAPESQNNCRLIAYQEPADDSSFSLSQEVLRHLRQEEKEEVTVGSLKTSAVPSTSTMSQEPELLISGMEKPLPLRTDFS
T2 sequence (Q86WV6 whole entry S162A/H232R/Q266I): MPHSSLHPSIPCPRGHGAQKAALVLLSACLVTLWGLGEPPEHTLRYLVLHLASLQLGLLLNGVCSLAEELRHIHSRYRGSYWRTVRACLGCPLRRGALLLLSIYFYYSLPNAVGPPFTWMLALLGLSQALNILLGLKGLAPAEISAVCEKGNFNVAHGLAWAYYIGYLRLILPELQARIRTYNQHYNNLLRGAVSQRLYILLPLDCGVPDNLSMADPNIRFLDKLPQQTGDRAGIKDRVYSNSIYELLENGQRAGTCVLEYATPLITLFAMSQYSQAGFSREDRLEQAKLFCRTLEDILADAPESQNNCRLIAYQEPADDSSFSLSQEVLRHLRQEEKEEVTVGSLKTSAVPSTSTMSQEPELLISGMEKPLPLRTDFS
Chain of hSTING^H232/A162 (Q86WV6 140-379 S162A): as the sequence (Q86WV6 140-379 S162A/H232R) above, with R93H counted along it
T4 sequence (Q86WV6 whole entry S162I): as the sequence (Q86WV6 whole entry S162A/H232R/Q266I) above, with A162I, R232H, I266Q counted along it
T1 sequence (Q86WV6 whole entry H232R/I235L): as the sequence (Q86WV6 whole entry S162A/H232R/Q266I) above, with A162S, I235L, I266Q counted along it
T3 sequence (Q86WV6 whole entry S162V): as the sequence (Q86WV6 whole entry S162A/H232R/Q266I) above, with A162V, R232H, I266Q counted along it
T5 sequence (Q86WV6 whole entry H232R/Q266L): as the sequence (Q86WV6 whole entry S162A/H232R/Q266I) above, with A162S, I266L counted along it
Chain of hSTING^S162A/G230I/Q266I (Q86WV6 whole entry S162A/G230I/H232R/Q266I): as the sequence (Q86WV6 whole entry S162A/H232R/Q266I) above, with G230I counted along it
T7 sequence (Q86WV6 whole entry L222R/K224M/T229N/G230I/H232R/D237N/I244V): as the sequence (Q86WV6 whole entry S162A/H232R/Q266I) above, with A162S, L222R, K224M, T229N, G230I, D237N, I244V, I266Q counted along it
T6 sequence (Q86WV6 whole entry S162A/H232R): as the sequence (Q86WV6 whole entry S162A/H232R/Q266I) above, with I266Q counted along it
Chain of hSTING^R232 (aa 140-379) (Q86WV6 140-379 H232R): as the sequence (Q86WV6 140-379 S162A/H232R) above, with A23S counted along it

binding to DMXAA (ITC) [1]: no detectable binding
TΔS [2]: +8.65 Kcal/mol
ΔG [2]: -8.29 kcal/mol
ΔH [2]: +0.36 Kcal/mol
DMXAA-mediated IFN-β induction [3]: no effects
increases in IFN-β mRNA levels [4]: 3.1 fold
IFN induction by DMXAA [5]: not observed
IFN-β luciferase reporter response to DMXAA [6]: strongly diminished DMXAA activation
CXCL10 production (ELISA) [7]: highest level of CXCL10 production
TΔS [9]: +7.99 Kcal/mol
ΔH [9]: +0.44 Kcal/mol
IFN induction by DMXAA [10]: not observed
DMXAA-mediated IFN-β induction [11]: less pronounced gain
IFN luciferase reporter response to DMXAA [12]: enabled recognition of DMXAA
increases in IFN-β mRNA levels [13]: 2.2 fold
IFN-β luciferase reporter response to DMXAA [15]: showed responsiveness to DMXAA
Structure (SMILES): Cc1ccc2c(=O)c3cccc(CC(=O)O)c3oc2c1C [DMXAA, 5,6-dimethylxanthenone-4-acetic acid]
outcome of human phase III trials [8]: failed
DMXAA-induced IFN-β induction [14]: enhanced DMXAA-induced IFN-β induction similar to mSTING
